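48-hour exposure; five concentrations; linearly interpolated endpoints. TGI denotes the concentration required for complete inhibition of growth.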
Legend:
Assay in all cases: DTP human tumour cell line panel, 48 h
[1] = tested on: HCT-15 colon
[2] = tested on: ACHN renal
[3] = tested on: TK-10 renal
[4] = tested on: HCT-116 colon
[5] = tested on: PC-3 prostate
[6] = tested on: BT-549 breast
[7] = tested on: UO-31 renal
[8] = tested on: MDA-MB-435
[9] = tested on: HOP-92 NSCLC
[10] = tested on: HS 578T breast

Measured: TGI

COc1cc(OC)c2c(O)c(S(=O)(=O)c3ccc(C)cc3)c(=O)oc2c1
> 100 µM: all assays above

Cc1ccc(SC[C@@]2(C(F)F)NC(=O)NC2=O)cc1
> 100 µM: all assays above

— PubChem BioAssay (NCI)
